Test results taken from ChEMBL document CHEMBL1201862, “PubChem BioAssay data set” (2004).
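Values below derive from 48-hour exposures of cells grown in 96-well plates, with endpoints linearly interpolated between the two concentrations bracketing the appropriate inhibition level. GI50: concentration for 50% inhibition of growth.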 Active and inactive are the calls of the source. Cut-off read from the data, not from the text of the source: active = GI50 up to about 1.1 µM and inactive = higher.

Experiments:
Assay in all cases: inhibition of tumour cell growth, NCI panel, 48 h
EKVX = system: EKVX
HCT-116 = system: HCT-116
HOP-92 = system: HOP-92
HT-29 = system: HT-29
KM12 = system: KM12
LOX IMVI = system: LOX IMVI
M14 = system: M14
NCI-H522 = system: NCI-H522
OVCAR-5 = system: OVCAR-5
OVCAR-8 = system: OVCAR-8
RPMI-8226 = system: RPMI-8226
SF-268 = system: SF-268
SF-295 = system: SF-295
SN12C = system: SN12C
SNB-19 = system: SNB-19
SW-620 = system: SW-620
U-251 = system: U-251
UACC-257 = system: UACC-257
UACC-62 = system: UACC-62

Measured: GI50

Oc1c(Br)cc(CN(Cc2cc(Br)c(O)c(Br)c2)C2CCCCC2)cc1Br
inactive: EKVX > 100 µM | HCT-116 > 100 µM | HOP-92 > 100 µM | HT-29 > 100 µM | KM12 > 100 µM | LOX IMVI > 100 µM | M14 > 100 µM | NCI-H522 > 100 µM | OVCAR-5 > 100 µM | OVCAR-8 > 100 µM | RPMI-8226 > 100 µM | SF-268 > 100 µM | SF-295 > 100 µM | SN12C > 100 µM | SNB-19 > 100 µM | SW-620 > 100 µM | U-251 > 100 µM | UACC-257 > 100 µM | UACC-62 > 100 µM

CN(NC(=O)c1ccco1)C1=NCCN1
inactive: EKVX > 100 µM | HCT-116 > 100 µM | HOP-92 > 100 µM | HT-29 > 100 µM | KM12 > 100 µM | LOX IMVI > 100 µM | M14 > 100 µM | NCI-H522 > 100 µM | OVCAR-5 > 100 µM | OVCAR-8 > 100 µM | RPMI-8226 > 100 µM | SF-268 > 100 µM | SF-295 > 100 µM | SN12C > 100 µM | SNB-19 > 100 µM | SW-620 > 100 µM | U-251 > 100 µM | UACC-257 > 100 µM | UACC-62 > 100 µM

O=C(O)CNC(=O)c1ccc2cc(C(=O)N3CC(CCl)c4ccc([N+](=O)[O-])cc43)[nH]c2c1 (configuration not stated)
inactive: EKVX > 100 µM | HCT-116 > 100 µM | HOP-92 > 100 µM | HT-29 > 100 µM | KM12 > 100 µM | LOX IMVI > 100 µM | M14 > 100 µM | NCI-H522 > 100 µM | OVCAR-5 > 100 µM | OVCAR-8 > 100 µM | RPMI-8226 > 100 µM | SF-268 > 100 µM | SF-295 > 100 µM | SN12C > 100 µM | SNB-19 > 100 µM | SW-620 > 100 µM | U-251 > 100 µM | UACC-257 > 100 µM | UACC-62 > 100 µM

C/C(=N/NC(=S)N(C)C)c1ccccc1O
inactive: EKVX 29.1 µM | HCT-116 3.33 µM | HOP-92 > 75.2 µM | HT-29 3.26 µM | KM12 8.85 µM | LOX IMVI 4.86 µM | M14 7.35 µM | NCI-H522 9.86 µM | OVCAR-5 17.4 µM | OVCAR-8 5.22 µM | RPMI-8226 > 31.8 µM | SF-268 6.07 µM | SF-295 11.8 µM | SN12C 14.4 µM | SNB-19 > 59.8 µM | SW-620 9.4 µM | U-251 6.35 µM | UACC-257 17.1 µM | UACC-62 6.46 µM

Clc1ccc(/C=N/C23CC4CC(CC(C4)C2)C3)cc1Cl
inactive: EKVX > 10 µM | HCT-116 > 10 µM | HOP-92 > 10 µM | HT-29 > 10 µM | KM12 > 10 µM | LOX IMVI > 10 µM | M14 > 10 µM | NCI-H522 > 10 µM | OVCAR-5 > 10 µM | OVCAR-8 > 10 µM | RPMI-8226 > 10 µM | SF-268 > 10 µM | SF-295 > 10 µM | SN12C > 10 µM | SNB-19 > 10 µM | SW-620 > 10 µM | U-251 > 10 µM | UACC-257 > 10 µM | UACC-62 > 10 µM

CC(C)(C)OC(=O)N1C(C2=COc3ccccc3O2)=COc2cccnc21
inactive: EKVX 1.38 µM | HCT-116 1.99 µM | HOP-92 1.25 µM | HT-29 1.91 µM | KM12 1.78 µM | LOX IMVI 1.74 µM | M14 1.79 µM | NCI-H522 1.61 µM | OVCAR-5 1.65 µM | OVCAR-8 1.9 µM | RPMI-8226 1.55 µM | SF-268 1.5 µM | SF-295 1.95 µM | SN12C 1.71 µM | SNB-19 2.04 µM | SW-620 2.01 µM | U-251 1.73 µM | UACC-257 1.75 µM | UACC-62 1.58 µM

Cn1nnc2c(C(N)=S)ncn2c1=O
inactive: EKVX > 100 µM | HCT-116 > 100 µM | HOP-92 > 100 µM | HT-29 > 100 µM | KM12 > 100 µM | LOX IMVI > 100 µM | M14 > 100 µM | NCI-H522 > 100 µM | OVCAR-5 > 100 µM | OVCAR-8 > 100 µM | RPMI-8226 > 100 µM | SF-268 > 100 µM | SF-295 74.1 µM | SN12C > 100 µM | SNB-19 > 100 µM | SW-620 > 100 µM | U-251 > 100 µM | UACC-257 > 100 µM | UACC-62 > 100 µM

CC1(C)N=c2c(ncn2CCO)=C(C(N)=O)N1
inactive: EKVX > 100 µM | HCT-116 > 100 µM | HOP-92 26.2 µM | HT-29 > 100 µM | KM12 > 100 µM | LOX IMVI > 100 µM | M14 > 100 µM | NCI-H522 > 100 µM | OVCAR-5 > 100 µM | OVCAR-8 > 100 µM | RPMI-8226 > 100 µM | SF-268 > 100 µM | SF-295 > 100 µM | SN12C > 100 µM | SNB-19 > 100 µM | SW-620 > 100 µM | U-251 > 100 µM | UACC-257 > 100 µM | UACC-62 > 100 µM
